One test deals with soleus muscle strips. As to the kind of experiment: 3-O-methyl glucose transport (3MGT) in incubated soleus muscle strips (Example 12). The class given is cell-based, rat. The settings on record: for effect on 3MGT: 10 minute incubation. As to the method: Male Sprague-Dawley rats are used in all the following examples. Soleus muscle strips are incubated as described by Bonen et al (1992), Wilkes and Bonen (2000) and Bonen et al (1994) to determine glucose transport. Basal and insulin-stimulated 3-O-methyl glucose transport (3MGT) is examined in a dose dependent (0-10 nM) manner during a 10 minute incubation period in appropriate buffer (Bonen et al., 1994). Comparison of this dose-response relationship of insulin, and the A1 agonist CPA, and A2 agonist DPMA on 3MGT is conducted. 3MGT rates are linear for up to 20 minutes. The 10 minute period is therefore a convenient time point to acquire sufficient counts in the muscle at a reasonable cost of using radiolabelled 3MGT.
Optimal stimulating concentrations of insulin, CPA, and DPMA are established for 3MGT.

For a further test, the system named is lean sedentary males. The experiment in a line: Hyperinsulinemic euglycemic clamp after caffeine ingestion (Example 1). The class given is in vivo, human. The protocol: (§1) The methods and materials employed in this invention are common to those skilled in the art. The methods and materials for the hyperinsulinemic euglycemic glucose clamp test are found in Greer et al., 2001. The methods and materials for the oral glucose tolerance test (OGTT) are described in Graham et al., 2001.
Trials were separated by one week. Prior to each clamp session, subjects withdrew from methylxanthine containing products for 48 hours.

The test system of another test is young, fit, adult males. The experiment in a line: Oral glucose tolerance test (OGTT) after caffeine ingestion in lean males (Example 2). The class given is in vivo, human.
Description: as §1
Young, fit, adult males (n=18) underwent two oral glucose tolerance tests (OGTT). […] Following the OGTT all of these parameters increased (p≦0.05) for the duration of the OGTT. […] During the OGTT these decreased to match those of the placebo trial. […] The data support the hypothesis that caffeine ingestion impairs glucose disposal.

The subject of a further test is healthy male subjects. The experiment in a line: OGTT after alkaloid caffeine, caffeinated coffee, decaffeinated coffee or placebo (Example 3). The class given is in vivo, human. The settings on record: two hours of the OGTT; n=10. The protocol: as §1
Venous blood samples were taken at −30, 0 (treatment given), 60 (OGTT administered), 75, 90, 120, 150 and 180 minutes and were analyzed for glucose, insulin, C peptide, glycerol, free fatty acids and lactate. Area under the curve (AUC) were calculated for the two hours of the OGTT. […] This component acts as an adenosine receptor […].

In test [1] the test system is obese (BMI>30) nondiabetic males. The experiment in a line: OGTT after caffeine ingestion in obese nondiabetic males (Example 5). The class given is in vivo, human. The settings on record: obese males (n=4).
For test [2], the system named is obese (BMI=30-38 kg/m2) men. The experiment in a line: OGTT after caffeine before and after a weight loss program (Example 6). The class given is in vivo, human.
Test [3] concerns young, sedentary, obese males. As to the kind of experiment: OGTT after caffeine in obese, resting males (Example 7). The class given is in vivo, human. The settings on record: p<0.05.
Test [4] concerns obese and Type 2 diabetic males. The experiment in a line: OGTT with and without caffeine in lean, obese and Type 2 diabetic males (Example 8). The class given is in vivo, human. The source says:
The results will be compared to the current data base; containing data (28,40) collected in an identical fashion for 30 lean (BMI of less than 25) males age 18-30 years. Lean subjects have BMI of less than 25, the obese are class I (BMI 30-34), abdominal obese (waist circumference>100 cm) and the diabetics have the same anthropometry. The diabetics are volunteers who have been well controlled for a year, with glycosylated hemoglobin levels between 6.5-9.5% for at least three months. They have similar levels of obesity, are not insulin-dependent, and are not on oral hypoglycemic agents, but rather diet-controlled. Their participation is medically approved and they are screened for hypertension and angina. The area under the curve for insulin and C-peptide is greater for the obese and even greater for the diabetic subjects. […] Data also includes plasma catecholamines, methylxanthines, FFA, and glycerol.

The test system of another test is young type 1 diabetics. As to the kind of experiment: Caffeine followed by high glycemic index cereal in type 1 diabetics (Example 18). The class given is in vivo, human. As to the method: Young type 1 diabetics (5 females and 1 male) who had been diagnosed for an average of 8.3±5.4 years volunteered to perform two trials in a randomized, double blind study design. Subjects were given either placebo or caffeine-containing (5 mg/kg) capsules and 30 minutes later they self-administered the appropriate amount of insulin for the ingestion of 60 g of carbohydrates in the form of a high glycemic cereal with 125 ml of 1% milk. The amount of self-administered insulin and injection site were the same for both trials. Venous blood glucose was measured prior to capsule ingestion, prior to insulin injection, and immediately following ingestion of the cereal meal (t=0 minutes). Blood glucose was then measured every 15 minutes for the next 2.5 hours.

For test [5], the system named is obese type 2 diabetic males. As to the kind of experiment: OGTT with and without caffeine in obese type 2 diabetic males (Example 19). The class given is in vivo, human.
In test [6] the test system is A1 and A2 adenosine receptors. The experiment in a line: Adenosine receptor-stimulated adenylate cyclase activity (cAMP) in skeletal muscle homogenates (Example 4). The class given is biochemical, rat. As to the method: The purpose of this study was to investigate the presence of A1 and A2 adenosine receptors (AR) in rat and human skeletal muscle. Adenosine receptor-stimulated adenylate cyclase activity studies were conducted to determine cAMP responses in the presence of AR agonists using rat skeletal muscle homogenates. Subsequently, Western blotting experiments were conducted to identify the A1 and A2 receptor proteins in rodent and human skeletal muscle samples. […] There was little effect of R-PIA (an A1 AR agonist) on cAMP levels in any fiber type. […] A2a expression was highest in the liver compared to muscle and heart homogenates.

The subject of another test is Akt. As to the kind of experiment: Signaling protein activation in isolated rodent muscles (Example 14). The class given is cell-based, rat. As to the method: Experiments with insulin, CPA and DPMA are performed in isolated muscles using optimal stimulating concentrations to determine which signaling proteins are activated. For this purpose, isolated rodent muscles are incubated with either basal or maximal insulin concentrations with and without either CPA or DPMA. Glucose transport is determined by 3MGT, measured over 10 minutes. The muscle samples are analyzed for IRTK, IRS-1 associated P13 kinase, p38 MAP kinase and Akt activities. The critical exposure time to activate signaling proteins is established in pilot work. […] Optimal exposure times required for signaling protein activation by CPA and DPMA are established. […] We establish that blocking P13-kinase with LY29004 blocks downstream activation of Akt by insulin, and by CPA and DPMA.

[7] abbreviates: caffeine 5 mg/kg 1 h before 75 g dextrose, p≦0.05.
Setting [8] is: last 90 minutes of the OGTT, p≦0.05.

For `OC[C@H]1O[C@@H](n2cnc3c(NC4CCCC4)ncnc32)[C@H](O)[C@@H]1O` [CPA, N6-cyclopentyladenosine], in the test with soleus muscle strips, the “effect on 3MGT” value is “increases”.
On the same count and under the same terms, the entry for `COc1cc(OC)cc(C(CNc2ncnc3c2ncn3[C@@H]2O[C@H](CO)[C@@H](O)[C@H]2O)c2ccccc2C)c1` (stereo partly shown) [DPMA, N-[2-(3,5-dimethoxy-phenyl)-2-(2-methylphenyl)ethyl]-adenosine] is “increases”.
In the case of `Cn1c(=O)c2c(ncn2C)n(C)c1=O` [caffeine], the “decrease in carbohydrate storage compared to placebo” value in the test on lean sedentary males (caffeine 5 mg/kg) is on record as 35%. The “decrease in glucose disposal” value in the test with lean sedentary males (caffeine 5 mg/kg vs placebo) turned out to be 24%. Further, in the test on lean sedentary males (caffeine 5 mg/kg, placebo 8.42+/−0.63, n=9), the glucose disposal was 6.38 ± 0.76 mg/kg/min. Besides, the “serum fatty acids, glycerol and plasma epinephrine” value in the test with young, fit, adult males (after caffeine ingestion, before OGTT, p≦0.05) was “increase”. In addition, in the test on young, fit, adult males (setting [7]), the “serum C peptide area under the curve, greater than placebo” value is 37% and the “serum insulin area under the curve, greater than placebo” value is 60%. In the test with young, fit, adult males (during OGTT), the “blood glucose level vs placebo” value is “no differences between trials”. In the test with young, fit, adult males (setting [8]), the “serum C peptide concentration vs placebo” value was “significantly greater” and the “serum insulin concentration vs placebo” value is on record as “significantly greater”. Further, in the test on young, fit, adult males (lean males (n=18), OGTT), the “AUC for GLU” value came to 168 mM/2 h. The “insulin AUC” value with young, fit, adult males (lean males (n=18), OGTT, placebo 3274) worked out at 5242 uU/ml/2h. In addition, in the test on healthy male subjects, the “AUC for glucose, comparison between treatments” value was “higher than both CC (p<0.04) and DC (p<0.01)”; the “AUC for insulin, comparison between treatments” value was “higher AUC for insulin (see FIG. 5) than both PL (p<0.002) and DC (p<0.001)”; the “AUC for peptide C, comparison between treatments” value is “higher values than both PL (p<0.02) and DC (p<0.001)”. Moreover, the “AUC for GLU” value in test [1] is 167 mM/2 h. For the same compound, in test [1] (placebo 6938), the “insulin AUC” value is on record as 10,968 uU/ml/2 h. Further, the “increase in insulin during the OGTT compared to placebo” value in test [2] (following the twelve week intervention, p=0.056) was “greater”. Also, the “blood glucose vs placebo” value in test [2] (prior to the twelve week intervention) is given as “no differences”. The “insulin response during the OGTT vs placebo” value in test [2] (prior to the twelve week intervention, caffeine 5 mg/kg, p=0.043) is given as “greater”. In addition, the “glucose area under the curve during the OGTT” value in test [3] (caffeine 5 mg/kg, n=28, placebo 188.5) is on record as 260.1 mM/2h. Besides, in test [3] (caffeine 5 mg/kg, n=28, placebo 7037.9), the “insulin area under the curve during the OGTT” value turned out to be 9455.8 uIU/ml/2h. In test [3] (last 90 minutes of the OGTT), the “glucose level vs placebo” value is “significantly greater”. Also, the “insulin level vs placebo” value in test [3] (last 105 minutes of the OGTT) is reported as “significantly greater”. In addition, the “area under the curves for insulin and C-peptide following caffeine ingestion” value in [4] (lean subjects) is given as “increased”. The “area under the curves for insulin and C-peptide following caffeine ingestion” value in test [4] (obese and diabetic subjects, relative to lean) is “even greater response”. For the same compound, the “difference in the glucose area under the curve, caffeine vs placebo” value in the test with young type 1 diabetics (caffeine 5 mg/kg) came to 72%. Besides, the “glucose area under the curve” value with young type 1 diabetics (caffeine 5 mg/kg capsules, placebo 347±7.4, p<0.01) worked out at 598±7.4 mM/2.5 h. The compound further had a blood glucose in [5] (180 minutes following ingestion of the OGTT, caffeine 5 mg/kg, placebo 7.4±1.0) of 8.4 ± 0.8 mM. The “blood glucose compared with placebo” value in test [5] (last hour of the OGTT (120 to 180 minutes), p<0.05) is given as “significantly elevated”.
`CCNC(=O)[C@H]1O[C@@H](n2cnc3c(N)ncnc32)[C@H](O)[C@@H]1O` [NECA]: the “effect on cAMP production” value in test [6] (glycolytic samples) is listed as “no effect”. The “increase in cAMP production” value in test [6] (rat oxidative muscle homogenates) is listed as 7.5 fold.
As for `C[C@H](Cc1ccccc1)Nc1ncnc2c1ncn2[C@@H]1O[C@H](CO)[C@@H](O)[C@H]1O` [R-PIA], in [6] (any fiber type), the “effect on cAMP levels” value is on record as “little effect”.
For the compound `O=c1cc(N2CCOCC2)oc2c(-c3ccccc3)cccc12` [LY29004], in the test on soleus muscle strips, the “effect on CPA- and DPMA-induced increases in 3MGT” value is listed as “inhibited”; the “effect on insulin stimulated 3MGT” value is given as “inhibited”. Moreover, the “effect on downstream activation of Akt by insulin, and by CPA and DPMA” value with Akt was “blocks”.

The values are drawn from patent US20030007996A1, “Therapies for the prevention and treatment of diabetes and obesity” (priority 2001, published 2003).
